Measurements as given in patent US7605190B2, “Polymerizable compositions with acylgermanium compounds” (Ivoclar Vivadent AG, priority 2006, dated 2009).
Where two headings read alike, the source gives them in different places.

How the values were obtained:
[1] = Photoinitiator activity by photo-DSC
Protocol: The activity of the photoinitiators was measured by means of photo-DSC (Differential Scanning Calorimetry) measurements on a DSC-50 device from Shimadzu, wherein the samples were irradiated alternatively with different dental lamps (Astalis 3: halogen lamp, wavelength range 400-500 nm, intensity 530 mW/cm^2; Bluephase C8: LED, wavelength range 430-490 nm, intensity 1100 mW/cm^2; Ivoclar Vivadent AG). The activity is characterized by the time of peak maximum (tmax), the polymerization rate (RP) which corresponds to the peak height, and the double bond conversion (DBC). The respective photoinitiators were dissolved in a resin mixture of D3MA:UDMA:bis-GMA=1:1:1 and then measured in an aluminum crucible by means of DSC. […]

[2] = Absorption maximum (UV-VIS); assay type: physicochemical; conditions: own acylgermanium photoinitiators
[3] = known comparison photoinitiators; cited from earlier work
[4] = Astralis 3 lamp (400-500 nm), 0.022 mmol PI per gram of resin
[5] = Bluephase C8 lamp (430-490 nm), 0.022 mmol PI per gram of resin

SMILES	reactivity compared with camphorquinone/amine ([1]; 15-fold dilution of the initiator)	DBC [1, 4]	Rp × 10^−3 [1, 4]	tmax [1, 4]	DBC [1, 5]	Rp × 10^−3 [1, 5]	tmax [1, 5]	curing time compared with campherquinone/amine ([1]; D3MA:UDMA:bis-GMA=1:1:1)	DBC ([1]; PI concentration 0.0014 mmol/g)	Rp × 10^−3 ([1]; PI concentration 0.0014 mmol/g)	tmax ([1]; PI concentration 0.0014 mmol/g)	DBC ([1]; PI concentration 0.0055 mmol/g)	Rp × 10^−3 ([1]; PI concentration 0.0055 mmol/g)	tmax ([1]; PI concentration 0.0055 mmol/g)	polymerization rate (Rp) relative to camphorquinone in combination with an amine accelerator ([1]; same formulation, D3MA:UDMA:bis-GMA=1:1:1)	absorption maximum [2]	absorption maximum [3]
C[CH2][Ge]([CH2]C)([C](=O)c1ccccc1)[C](=O)c1ccccc1 [Bis-AG, bisbenzoyldiethylgermanium]	comparable with camphorquinone/amine	84%	99.2 mol/(l × s)	7.8 s	72%	98.5 mol/(l × s)	7.8 s	halved	56%	61.0 mol/(l × s)	12 s	66%	85.6 mol/(l × s)	9 s	almost double	418.5 nm	–
O=[C](c1ccccc1)[Ge]1([C](=O)c2ccccc2)[CH2]CCC[CH2]1 [Example 9, 1,1-bisbenzoyl-germinane]	–	–	–	–	–	–	–	–	–	–	–	–	–	–	–	418.1 nm	–
Cc1cc(C)c(C(=O)P(=O)(C(=O)c2c(C)cc(C)cc2C)c2ccccc2)c(C)c1 [Irg 819, bis(2,4,6-trimethylbenzoyl)phenylphosphine oxide, reference compound]	–	59%	67.5 mol/(l × s)	11 s	45%	43.5 mol/(l × s)	17 s	–	42%	30.4 mol/(l × s)	23 s	48%	48.3 mol/(l × s)	14 s	–	–	397 nm
[CH3][Ge]([CH3])([CH3])[C](=O)c1ccccc1 [Mono-AG, benzoyltrimethylgermanium]	–	56%	51.0 mol/(l × s)	16 s	49%	48.3 mol/(l × s)	16 s	–	30%	16.4 mol/(l × s)	52 s	48%	36.2 mol/(l × s)	24 s	–	411.5 nm	–
CC12CCC(C(=O)C1=O)C2(C)C (centres unmarked) [camphorquinone]	–	–	–	–	–	–	–	–	–	–	–	–	–	–	–	–	468 nm
